This is an account of results in patent US20230027985A1, “SUBSTITUTED HYDANTOINAMIDES AS ADAMTS7 ANTAGONISTS” (Bayer Aktiengesellschaft, priority 2019, published 2023).

Experiment [1] addresses T1, Purified recombinant ADAMTS-7 (rat prodomain/human catalytic domain, SEQ ID No. 01 or 02) (Homo sapiens, UniProt Q9UKP4).
T1 construct: rat ADAMTS-7 signal peptide + prodomain (rat 1-217, Q1EHB3) (N); 2xStrep tag (C); 6xHis tag (C); made in house; host or cells: Expi293 cells
T1 sequence (Q9UKP4 237-537): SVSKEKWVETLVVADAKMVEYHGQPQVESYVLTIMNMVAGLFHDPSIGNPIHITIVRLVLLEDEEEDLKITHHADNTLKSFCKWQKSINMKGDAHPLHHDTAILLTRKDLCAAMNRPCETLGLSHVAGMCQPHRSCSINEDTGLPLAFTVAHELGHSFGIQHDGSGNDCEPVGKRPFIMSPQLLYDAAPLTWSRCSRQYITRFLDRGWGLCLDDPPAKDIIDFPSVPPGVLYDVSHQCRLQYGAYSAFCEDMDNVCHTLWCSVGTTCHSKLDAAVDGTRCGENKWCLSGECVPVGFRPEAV
Description: Assay for ADAMTS-7 enzymatic activity (FRET substrate cleavage). The experiment is classed as biochemical. The conditions noted are these: FRET substrate SEQ ID No. 11, 120 min at 32° C.; read-out: ADAMTS7-IC50. The method, boiled down: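 IC50 values were fitted from percent inhibition across test-compound concentrations. Fluorescence gain (ex 485, em 520 nm) reports cleavage of a thrombospondin-1 (275-289) FRET peptide with QXL520 quencher, after 120 min at 32 °C. The enzyme, about 20 nM, was in HEPES pH 8.0 buffer with NaCl, CaCl2, ZnCl2 and Brij.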

For another experiment, the target named is T2, ADAMTS4 (Homo sapiens, UniProt O75173).
T2 construct: purchased R&D 4307-AD
T2 sequence (O75173 213-685 limits assumed): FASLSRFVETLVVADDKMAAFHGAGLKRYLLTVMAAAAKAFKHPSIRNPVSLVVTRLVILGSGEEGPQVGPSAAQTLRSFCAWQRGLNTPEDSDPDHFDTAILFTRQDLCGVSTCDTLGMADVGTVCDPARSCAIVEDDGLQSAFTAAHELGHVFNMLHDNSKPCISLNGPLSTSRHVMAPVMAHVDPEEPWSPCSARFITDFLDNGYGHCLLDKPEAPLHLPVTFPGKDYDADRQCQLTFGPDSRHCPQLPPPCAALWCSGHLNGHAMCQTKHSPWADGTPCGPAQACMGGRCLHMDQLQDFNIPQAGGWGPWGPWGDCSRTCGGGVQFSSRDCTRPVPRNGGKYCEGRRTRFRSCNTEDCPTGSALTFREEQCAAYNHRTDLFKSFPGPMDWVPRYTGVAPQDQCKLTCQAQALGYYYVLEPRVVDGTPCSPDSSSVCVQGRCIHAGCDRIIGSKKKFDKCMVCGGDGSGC
Nature of the experiment: Selectivity assay for ADAMTS-7 modulators (FRET), ADAMTS4. The conditions noted are these: 50 nM enzyme (R&D 4307-AD), 1 μM Dabcyl/Edans FRET substrate, 120 min at 32° C. The format is biochemical. In short, it runs like this:
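Enzyme in 50 mM Tris pH 7.5, 150 mM NaCl, 10 mM CaCl2, 0.05% Brij, preincubated with compound in DMSO; reaction started with FRET substrate. Fluorescence increase read after 120 min at 32° C; IC50 from percent inhibition versus compound concentration.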

What is called IC50 is the concentration that gives 50% inhibition. Consider `O=C1NC(=O)C(CNC(=O)c2cnn(-c3ccc(F)cc3)n2)(C2(Cl)CC2)N1` (racemic) [Example 159, rac-N-{[4-(1-chlorocyclopropyl)-2,5-dioxoimidazolidin-4-yl]methyl}-2-(4-fluorophenyl)-2H-1,2,3-triazole-4-carboxamide], for which the IC50 in experiment [1] worked out at 74 nM; against ADAMTS4, 3700 nM.

Consider `CCC1(CNC(=O)c2cnn(-c3ccc(F)cc3)n2)NC(=O)NC1=O` (racemic) [Example 162, rac-N-[(4-ethyl-2,5-dioxoimidazolidin-4-yl)methyl]-2-(4-fluorophenyl)-2H-1,2,3-triazole-4-carboxamide], for which the 50% inhibitory concentration (IC50) in experiment [1] turned out to be 200 nM; at ADAMTS4, 13000 nM.

`O=C1NC(=O)C(CNC(=O)c2cnn(-c3ccc(F)cc3)n2)(c2ccccn2)N1` (single isomer, unassigned) [Example 97, ent-N-{[2,5-dioxo-4-(pyridin-2-yl)imidazolidin-4-yl]methyl}-2-(4-fluorophenyl)-2H-1,2,3-triazole-4-carboxamide]: the IC50 in experiment [1] turned out to be 10 nM; on ADAMTS4, 1900 nM.

In the case of `CCC(C)C1(CNC(=O)c2cnn(-c3ccc(F)cc3)n2)NC(=O)NC1=O` (single isomer, unassigned) [Example 104, ent-N-[(4-sec-butyl-2,5-dioxoimidazolidin-4-yl)methyl]-2-(4-fluorophenyl)-2H-1,2,3-triazole-4-carboxamide], the values for the IC50 (in experiment [1]; against ADAMTS4) were 10 nM and 2200 nM, respectively.

On to `CCC(C)C1(CNC(=O)c2cnn(-c3ccc(F)cc3)n2)NC(=O)NC1=O` (single isomer, unassigned) [Example 137, ent-N-[(4-sec-butyl-2,5-dioxoimidazolidin-4-yl)methyl]-2-(4-fluorophenyl)-2H-1,2,3-triazole-4-carboxamide], for which the 50% inhibitory concentration (IC50) turned out to be 37 nM in experiment [1] and 1000 nM on ADAMTS4.

Take `O=C1NC(=O)C(CNC(=O)c2cnn(-c3ccccc3)n2)(C2CCCOC2)N1` (single isomer, unassigned; dia1) [Example 84, dia1-N-{[4-(-oxan-3-yl)-2,5-dioxoimidazolidin-4-yl]methyl}-2-phenyl-2H-1,2,3-triazole-4-carboxamide]: the figures for the IC50 (in experiment [1]; on ADAMTS4) were 150 nM and 4000 nM, respectively.

Regarding `O=C1NC(=O)C(CNC(=O)c2cnn(-c3ccccc3)n2)(C2CCCOC2)N1` (single isomer, unassigned; dia2) [Example 85, dia2-N-{[4-(-oxan-3-yl)-2,5-dioxoimidazolidin-4-yl]methyl}-2-phenyl-2H-1,2,3-triazole-4-carboxamide], the IC50 in experiment [1] worked out at 250 nM; on ADAMTS4, 6500 nM.

`O=C1NC(=O)C(CNC(=O)c2cnn(-c3ccc(F)cc3)n2)(C2CCOCC2)N1` (single isomer, unassigned; ent-2) [Example 81]: the IC50 came to 37 nM in experiment [1] and 1500 nM on ADAMTS4.

`CC(C)C1(CNC(=O)c2cnn(-c3ccc(F)cc3F)n2)NC(=O)NC1=O` (single isomer, unassigned; ent-2) [Example 88, ent-2-(2,4-difluorophenyl)-N-[(4-isopropyl-2,5-dioxoimidazolidin-4-yl)methyl]-2H-1,2,3-triazole-4-carboxamide]: the half-inhibitory concentration (IC50) was determined as 98 nM in experiment [1] and 13000 nM at ADAMTS4.

`O=C1NC(=O)C(CNC(=O)c2cnn(-c3ccc(F)c(Cl)c3)n2)(C2CCC2)N1` (single isomer, unassigned; ent-2) [Example 91, ent-2-(3-chloro-4-fluorophenyl)-N-[(4-cyclobutyl-2,5-dioxoimidazolidin-4-yl)methyl]-2H-1,2,3-triazole-4-carboxamide]: the values for the IC50 (in experiment [1]; on ADAMTS4) were 18 nM and 1800 nM, respectively.

Take `N#Cc1cccc(-n2ncc(C(=O)NCC3(C4CCC4)NC(=O)NC3=O)n2)c1` (single isomer, unassigned; ent-2) [Example 92, ent-2-(3-cyanophenyl)-N-[(4-cyclobutyl-2,5-dioxoimidazolidin-4-yl)methyl]-2H-1,2,3-triazole-4-carboxamide]: the values for the IC50 (in experiment [1]; at ADAMTS4) were 78 nM and 4000 nM, respectively.

On to `O=C1NC(=O)C(CNC(=O)c2cnn(-c3ccc(Cl)cc3)n2)(C2CCC2)N1` (single isomer, unassigned; ent-2) [Example 95, ent-2-(4-chlorophenyl)-N-[(4-cyclobutyl-2,5-dioxoimidazolidin-4-yl)methyl]-2H-1,2,3-triazole-4-carboxamide], for which the values for the IC50 (in experiment [1]; at ADAMTS4) were 10 nM and 980 nM, respectively.

In the case of `O=C1NC(=O)C(CNC(=O)c2cnn(-c3cccc(Cl)c3)n2)(C2CCC2)N1` (single isomer, unassigned; ent-2) [Example 96, ent-2-(3-chlorophenyl)-N-[(4-cyclobutyl-2,5-dioxoimidazolidin-4-yl)methyl]-2H-1,2,3-triazole-4-carboxamide], the IC50 came to 48 nM in experiment [1] and 2200 nM on ADAMTS4.

Regarding `Cc1scnc1C1(CNC(=O)c2cnn(-c3ccc(F)cc3)n2)NC(=O)NC1=O` (single isomer, unassigned; ent-2) [Example 103], the values for the IC50 (in experiment [1]; against ADAMTS4) were 2 nM and 200 nM, respectively.

On to `O=C1NC(=O)C(CNC(=O)c2cnn(-c3ccc(F)c(F)c3)n2)(c2nccs2)N1` (single isomer, unassigned; ent-2) [Example 107, ent-2-(3,4-difluorophenyl)-N-{[2,5-dioxo-4-(1,3-thiazol-2-yl)imidazolidin-4-yl]methyl}-2H-1,2,3-triazole-4-carboxamide], for which the IC50 in experiment [1] stood at 7 nM; on ADAMTS4, 310 nM.

As for `O=C1NC(=O)C(CNC(=O)c2cnn(-c3ccc(Cl)c(F)c3)n2)(c2nccs2)N1` (single isomer, unassigned; ent-2) [Example 110, ent-2-(4-chloro-3-fluorophenyl)-N-{[2,5-dioxo-4-(1,3-thiazol-2-yl)imidazolidin-4-yl]methyl}-2H-1,2,3-triazole-4-carboxamide], the IC50 in experiment [1] turned out to be 5 nM; on ADAMTS4, 400 nM.

On to `O=C1NC(=O)C(CNC(=O)c2cnn(-c3ccc(F)c(Cl)c3)n2)(c2nccs2)N1` (single isomer, unassigned; ent-2) [Example 112, ent-2-(3-chloro-4-fluorophenyl)-N-{[2,5-dioxo-4-(1,3-thiazol-2-yl)imidazolidin-4-yl]methyl}-2H-1,2,3-triazole-4-carboxamide], for which the results for the IC50 (in experiment [1]; on ADAMTS4) were 14 nM and 780 nM, respectively.

As for `O=C1NC(=O)C(CNC(=O)c2cnn(-c3ccc(F)cc3F)n2)(c2nccs2)N1` (single isomer, unassigned; ent-2) [Example 116, ent-2-(2,4-difluorophenyl)-N-{[2,5-dioxo-4-(1,3-thiazol-2-yl)imidazolidin-4-yl]methyl}-2H-1,2,3-triazole-4-carboxamide], the IC50 in experiment [1] is 78 nM; at ADAMTS4 it was 5500 nM.

Turning to `CC(C)C1(CNC(=O)c2cnn(-c3cccc(F)c3)n2)NC(=O)NC1=O` (single isomer, unassigned; ent-2) [Example 119, ent-2-(3-fluorophenyl)-N-[(4-isopropyl-2,5-dioxoimidazolidin-4-yl)methyl]-2H-1,2,3-triazole-4-carboxamide], the IC50 in experiment [1] stood at 13 nM; at ADAMTS4 it was 2300 nM.

`CC(C)C1(CNC(=O)c2cnn(-c3cccc(C#N)c3)n2)NC(=O)NC1=O` (single isomer, unassigned; ent-2) [Example 121, ent-2-(3-cyanophenyl)-N-[(4-isopropyl-2,5-dioxoimidazolidin-4-yl)methyl]-2H-1,2,3-triazole-4-carboxamide]: the IC50 in experiment [1] is 78 nM; against ADAMTS4, 2600 nM.

`CC(C)C1(CNC(=O)c2cnn(-c3ccc(F)c(F)c3)n2)NC(=O)NC1=O` (single isomer, unassigned; ent-2) [Example 123, ent-2-(3,4-difluorophenyl)-N-[(4-isopropyl-2,5-dioxoimidazolidin-4-yl)methyl]-2H-1,2,3-triazole-4-carboxamide]: the IC50 was determined as 7 nM in experiment [1] and 910 nM against ADAMTS4.
